Measured values: ChEMBL document CHEMBL1145531, “Cyclopentanone ring-cleaved pleuromutilin derivatives” (2007)
≈ marks a conversion by molar mass, not a printed value.

Tested on: Streptococcus pneumoniae
Assay: Antibacterial activity against Streptococcus pneumoniae A9585 after 24 hrs
Format: functional
Details: A9585, 24 h

Compound	MIC [µg/mL]
C=C[C@]1(C)C[C@@H](OC(=O)CO)[C@]2(C)[C@H](C)CC[C@]3(CCC(=O)[C@@H]32)[C@@H](C)[C@@H]1O [PLEUROMUTILIN]	0.5 (≈ 1.32 µM)
C=C[C@]1(C)C[C@@H](OC(=O)CSc2ccccc2C(=O)O)[C@@]2(C)C(=O)[C@](CCC(=O)N(CC)CC)(CCC2C)[C@@H](C)[C@@H]1O (stereo not given in full)	4 (≈ 6.65 µM)
C=C[C@]1(C)C[C@@H](OC(=O)CSc2cccc(N)c2)[C@@]2(C)C(=O)[C@](CCC(=O)N(CC)CC)(CCC2C)[C@@H](C)[C@@H]1O (stereo not given in full)	4 (≈ 6.98 µM)
C=C[C@]1(C)C[C@@H](OC(=O)CSc2ccncc2)[C@@]2(C)C(=O)[C@](CCC(=O)O)(CCC2C)[C@@H](C)[C@@H]1O (stereo not given in full)	64 (≈ 127 µM)
C=C[C@]1(C)C[C@@H](OC(=O)CSc2cc(C)nc(C)c2)[C@@]2(C)C(=O)[C@](CCC(=O)N(CC)CC)(CCC2C)[C@@H](C)[C@@H]1O (stereo not given in full)	4 (≈ 6.82 µM)
C=C[C@]1(C)C[C@@H](OC(=O)CSc2cccc(N)c2)[C@@]2(C)C(=O)[C@](CCC)(CCC2C)[C@@H](C)[C@@H]1O (stereo not given in full)	8 (≈ 16.4 µM)
C=C[C@]1(C)C[C@@H](OC(=O)CO)[C@@]2(C)C(=O)[C@](CCC(N)=O)(CCC2C)[C@@H](C)[C@@H]1O (stereo not given in full)	64 (≈ 156 µM)
C=C[C@]1(C)C[C@@H](OC(=O)CSc2ccccc2O)[C@@]2(C)C(=O)[C@](CCC(=O)O)(CCC2C)[C@@H](C)[C@@H]1O (stereo not given in full)	4 (≈ 7.71 µM)
C=C[C@]1(C)C[C@@H](OC(=O)CO)[C@@]2(C)C(=O)[C@](CCC(=O)NCC)(CCC2C)[C@@H](C)[C@@H]1O (stereo not given in full)	> 64
C=C[C@]1(C)C[C@@H](OC(=O)CO)[C@@]2(C)C(=O)[C@](CCN)(CCC2C)[C@@H](C)[C@@H]1O (stereo not given in full)	> 64
C=C[C@]1(C)C[C@@H](OC(=O)CSc2ccccc2)[C@@]2(C)C(=O)[C@](CCC(=O)O)(CCC2C)[C@@H](C)[C@@H]1O (stereo not given in full)	> 64
C=C[C@]1(C)C[C@@H](OC(=O)CO)[C@@]2(C)C(=O)[C@](CCC(=O)N(CC)CC)(CCC2C)[C@@H](C)[C@@H]1O (stereo not given in full)	> 64
C=C[C@]1(C)C[C@@H](OC(=O)CSc2nnc(N)[nH]2)[C@@]2(C)C(=O)[C@](CCC(=O)O)(CCC2C)[C@@H](C)[C@@H]1O (stereo not given in full)	> 64
C=C[C@]1(C)C[C@@H](OC(=O)CSc2ccccn2)[C@@]2(C)C(=O)[C@](CCC(=O)O)(CCC2C)[C@@H](C)[C@@H]1O (stereo not given in full)	8 (≈ 15.9 µM)
C=C[C@]1(C)C[C@@H](OC(=O)CO)[C@@]2(C)C(=O)[C@](CCCO)(CCC2C)[C@@H](C)[C@@H]1O (stereo not given in full)	> 64
C=C[C@]1(C)C[C@@H](OC(=O)CO)[C@@]2(C)C(=O)[C@](CCC(=O)O)(CCC2C)[C@@H](C)[C@@H]1O (stereo not given in full)	8 (≈ 19.5 µM)
C=C[C@]1(C)C[C@@H](OC(=O)CSc2ccncc2)[C@@]2(C)C(=O)[C@](CCC(=O)OCC)(CCC2C)[C@@H](C)[C@@H]1O (stereo not given in full)	8 (≈ 15 µM)

Results, then the molecule that gave them:

MIC [µg/mL]	Compound
0.5 (≈ 0.793 µM)	C=C[C@]1(C)C[C@@H](OC(=O)CSc2cccc(N)c2)[C@@]2(C)C(=O)[C@](CCC(=O)NCC(=O)OC(C)(C)C)(CCC2C)[C@@H](C)[C@@H]1O (stereo not given in full)
0.125 (≈ 0.241 µM)	C=C[C@]1(C)C[C@@H](OC(=O)CSc2cccc(N)c2)[C@@]2(C)C(=O)[C@](CCC(=O)O)(CCC2C)[C@@H](C)[C@@H]1O (stereo not given in full)
0.25 (≈ 0.485 µM)	C=C[C@]1(C)C[C@@H](OC(=O)CO)[C@@]2(C)C(=O)[C@](CCNC(=O)OCc3ccccc3)(CCC2C)[C@@H](C)[C@@H]1O (stereo not given in full)
2 (≈ 3.48 µM)	C=C[C@]1(C)C[C@@H](OC(=O)CSc2cccc(N)c2)[C@@]2(C)C(=O)[C@](CCC(=O)NCC(=O)O)(CCC2C)[C@@H](C)[C@@H]1O (stereo not given in full)
1 (≈ 1.83 µM)	C=C[C@]1(C)C[C@@H](OC(=O)CSc2cccc(N)c2)[C@@]2(C)C(=O)[C@](CCC(=O)OCC)(CCC2C)[C@@H](C)[C@@H]1O (stereo not given in full)
0.25 (≈ 0.551 µM)	C=C[C@]1(C)C[C@@H](OC(=O)CO)[C@@]2(C)C(=O)[C@](CCNC(=O)OCC)(CCC2C)[C@@H](C)[C@@H]1O (stereo not given in full)
1 (≈ 1.88 µM)	C=C[C@]1(C)C[C@@H](OC(=O)CSc2ccccn2)[C@@]2(C)C(=O)[C@](CCC(=O)OCC)(CCC2C)[C@@H](C)[C@@H]1O (stereo not given in full)
2 (≈ 4.08 µM)	C=C[C@]1(C)C[C@@H](OC(=O)CO)[C@@]2(C)C(=O)[C@](CCCNC(=O)c3ccno3)(CCC2C)[C@@H](C)[C@@H]1O (stereo not given in full)

Tested on: Staphylococcus aureus
Assay: Antibacterial activity against Staphylococcus aureus A15090 after 24 hrs
Format: functional
Details: A15090, 24 h

Compound	MIC [µg/mL]
C=C[C@]1(C)C[C@@H](OC(=O)CO)[C@]2(C)[C@H](C)CC[C@]3(CCC(=O)[C@@H]32)[C@@H](C)[C@@H]1O [PLEUROMUTILIN]	0.5 (≈ 1.32 µM)
C=C[C@]1(C)C[C@@H](OC(=O)CSc2ccccc2C(=O)O)[C@@]2(C)C(=O)[C@](CCC(=O)N(CC)CC)(CCC2C)[C@@H](C)[C@@H]1O (stereo not given in full)	32 (≈ 53.2 µM)
C=C[C@]1(C)C[C@@H](OC(=O)CSc2cccc(N)c2)[C@@]2(C)C(=O)[C@](CCC(=O)N(CC)CC)(CCC2C)[C@@H](C)[C@@H]1O (stereo not given in full)	32 (≈ 55.9 µM)
C=C[C@]1(C)C[C@@H](OC(=O)CSc2ccncc2)[C@@]2(C)C(=O)[C@](CCC(=O)O)(CCC2C)[C@@H](C)[C@@H]1O (stereo not given in full)	128 (≈ 254 µM)
C=C[C@]1(C)C[C@@H](OC(=O)CSc2cc(C)nc(C)c2)[C@@]2(C)C(=O)[C@](CCC(=O)N(CC)CC)(CCC2C)[C@@H](C)[C@@H]1O (stereo not given in full)	32 (≈ 54.5 µM)
C=C[C@]1(C)C[C@@H](OC(=O)CSc2cccc(N)c2)[C@@]2(C)C(=O)[C@](CCC)(CCC2C)[C@@H](C)[C@@H]1O (stereo not given in full)	16 (≈ 32.8 µM)
C=C[C@]1(C)C[C@@H](OC(=O)CO)[C@@]2(C)C(=O)[C@](CCC(N)=O)(CCC2C)[C@@H](C)[C@@H]1O (stereo not given in full)	128 (≈ 313 µM)
C=C[C@]1(C)C[C@@H](OC(=O)CSc2ccccc2O)[C@@]2(C)C(=O)[C@](CCC(=O)O)(CCC2C)[C@@H](C)[C@@H]1O (stereo not given in full)	8 (≈ 15.4 µM)
C=C[C@]1(C)C[C@@H](OC(=O)CO)[C@@]2(C)C(=O)[C@](CCC(=O)NCC)(CCC2C)[C@@H](C)[C@@H]1O (stereo not given in full)	> 128
C=C[C@]1(C)C[C@@H](OC(=O)CO)[C@@]2(C)C(=O)[C@](CCN)(CCC2C)[C@@H](C)[C@@H]1O (stereo not given in full)	> 128
C=C[C@]1(C)C[C@@H](OC(=O)CSc2ccccc2)[C@@]2(C)C(=O)[C@](CCC(=O)O)(CCC2C)[C@@H](C)[C@@H]1O (stereo not given in full)	> 128
C=C[C@]1(C)C[C@@H](OC(=O)CO)[C@@]2(C)C(=O)[C@](CCC(=O)N(CC)CC)(CCC2C)[C@@H](C)[C@@H]1O (stereo not given in full)	> 128
C=C[C@]1(C)C[C@@H](OC(=O)CSc2nnc(N)[nH]2)[C@@]2(C)C(=O)[C@](CCC(=O)O)(CCC2C)[C@@H](C)[C@@H]1O (stereo not given in full)	> 128
C=C[C@]1(C)C[C@@H](OC(=O)CSc2ccccn2)[C@@]2(C)C(=O)[C@](CCC(=O)O)(CCC2C)[C@@H](C)[C@@H]1O (stereo not given in full)	8 (≈ 15.9 µM)
C=C[C@]1(C)C[C@@H](OC(=O)CO)[C@@]2(C)C(=O)[C@](CCCO)(CCC2C)[C@@H](C)[C@@H]1O (stereo not given in full)	> 128
C=C[C@]1(C)C[C@@H](OC(=O)CO)[C@@]2(C)C(=O)[C@](CCC(=O)O)(CCC2C)[C@@H](C)[C@@H]1O (stereo not given in full)	8 (≈ 19.5 µM)
C=C[C@]1(C)C[C@@H](OC(=O)CSc2ccncc2)[C@@]2(C)C(=O)[C@](CCC(=O)OCC)(CCC2C)[C@@H](C)[C@@H]1O (stereo not given in full)	8 (≈ 15 µM)

Second part, the molecule after the results:

MIC [µg/mL]	Compound
4 (≈ 6.34 µM)	C=C[C@]1(C)C[C@@H](OC(=O)CSc2cccc(N)c2)[C@@]2(C)C(=O)[C@](CCC(=O)NCC(=O)OC(C)(C)C)(CCC2C)[C@@H](C)[C@@H]1O (stereo not given in full)
0.25 (≈ 0.483 µM)	C=C[C@]1(C)C[C@@H](OC(=O)CSc2cccc(N)c2)[C@@]2(C)C(=O)[C@](CCC(=O)O)(CCC2C)[C@@H](C)[C@@H]1O (stereo not given in full)
16 (≈ 31 µM)	C=C[C@]1(C)C[C@@H](OC(=O)CO)[C@@]2(C)C(=O)[C@](CCNC(=O)OCc3ccccc3)(CCC2C)[C@@H](C)[C@@H]1O (stereo not given in full)
8 (≈ 13.9 µM)	C=C[C@]1(C)C[C@@H](OC(=O)CSc2cccc(N)c2)[C@@]2(C)C(=O)[C@](CCC(=O)NCC(=O)O)(CCC2C)[C@@H](C)[C@@H]1O (stereo not given in full)
1 (≈ 1.83 µM)	C=C[C@]1(C)C[C@@H](OC(=O)CSc2cccc(N)c2)[C@@]2(C)C(=O)[C@](CCC(=O)OCC)(CCC2C)[C@@H](C)[C@@H]1O (stereo not given in full)
16 (≈ 35.3 µM)	C=C[C@]1(C)C[C@@H](OC(=O)CO)[C@@]2(C)C(=O)[C@](CCNC(=O)OCC)(CCC2C)[C@@H](C)[C@@H]1O (stereo not given in full)
1 (≈ 1.88 µM)	C=C[C@]1(C)C[C@@H](OC(=O)CSc2ccccn2)[C@@]2(C)C(=O)[C@](CCC(=O)OCC)(CCC2C)[C@@H](C)[C@@H]1O (stereo not given in full)
32 (≈ 65.2 µM)	C=C[C@]1(C)C[C@@H](OC(=O)CO)[C@@]2(C)C(=O)[C@](CCCNC(=O)c3ccno3)(CCC2C)[C@@H](C)[C@@H]1O (stereo not given in full)
